{"source": "patent US11129870B2", "about": "“Compositions and methods for uncoupling TrkB receptor from PLC gamma 1 for the treatment of epilepsy and anxiety-like disorder” (DUKE UNIVERSITY, priority 2010, dated 2021)", "test_system": "PLCγ1", "assay": "SE-induced activation of PLCγ1 in hippocampus, peptide given i.v. after SE", "assay_type": "in vivo, mouse", "conditions": "6 hr later", "procedure": "Surgery and microinfusion studies provided in Examples 10-14 were performed as described here. Surgery and microinfusion of KA into right amygdala of adult mice was performed as previously described (Liu, G. et al., (2013) Neuron 79:31-38). Briefly, mice were anesthetized with pentobarbital (60 mg/kg, intraperitoneally [i.p.]) and placed in a stereotaxic frame. A guide cannula was stereotactically placed above the right amygdala (coordinates from bregma: AP=−1.2 mm; ML=3.0 mm). A bipolar electrode was placed in the left dorsal hippocampus (coordinates from bregma: AP=−2.0 mm; ML=−1.6 mm; DV=−1.5 mm). A ground electrode connected to a screw was placed in the skull above the cerebellum. After a postoperative recovery period of 7 days, the animal was gently restrained and an infusion cannula was inserted into the right amygdala through the guide cannula at the depth of 3.7 mm below dura. […]\nAnimals were anesthetized with pentobarbital (200 mg/kg i.p.) and decapitated, and the head was quickly immersed in liquid nitrogen for 4 s to rapidly cool the brain. […] The immunoreactivity of individual bands on western blots was measured by ImageJ software (National Institutes of Health) and normalized to PLCγ1, Akt or ERK contents. Equivalent protein loading among samples was monitored by β-actin (1:10000; Sigma) levels. […]", "note": "Where no end group is shown, it is not given here. [ ]: non-standard residue; d: D form. pY = N[C@@H](Cc1ccc(OP(=O)(O)O)cc1)C(=O)O", "data": [{"substance": "YGRKKRRQRRR-LQNLAKASPVpYLDI (YGRKKRRQRRRLQNLAKASPV[pY]LDI) [pY816]", "values": [{"measurement": "inhibition of SE-induced activation of PLCγ1 (p-PLCγ1 pY783 to PLCγ1 ratio)", "setting": "10 mg/kg i.v. immediately after diazepam", "result": "~75", "unit": "%"}, {"measurement": "inhibition of SE-induced activation of PLCγ1 (p-PLCγ1 pY783 to PLCγ1 ratio)", "setting": "20 mg/kg i.v. immediately after diazepam", "result": "~75", "unit": "%"}]}]}
